{"source": "paper PMC5986790", "about": "“Rational Discovery of (+) (S) Abscisic Acid as a Potential Antifungal Agent: a Repurposing Approach” (Scientific Reports, 2018)", "key": {"yeast chorismate mutase [1]": {"target": "T1, yeast chorismate mutase (Saccharomyces cerevisiae, UniProt P32178)", "T1 sequence (P32178 whole entry)": "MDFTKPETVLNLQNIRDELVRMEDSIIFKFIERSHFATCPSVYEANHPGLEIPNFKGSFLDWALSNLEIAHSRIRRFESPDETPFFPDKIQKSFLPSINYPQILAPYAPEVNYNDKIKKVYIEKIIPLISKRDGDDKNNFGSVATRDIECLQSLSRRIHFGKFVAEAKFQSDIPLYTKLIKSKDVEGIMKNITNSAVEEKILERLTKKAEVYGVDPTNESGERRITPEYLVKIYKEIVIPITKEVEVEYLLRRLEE", "parameters": "gene ARO7", "settings": "1 mM chorismic acid; yeast sonicate; Tris-HCl pH 8; 30 °C; tyrosine 10-500 µM; allosteric"}, "yeast chorismate mutase [2]": {"target": "T1, yeast chorismate mutase", "assay": "HPLC of chorismic acid and phenylpyruvate (prephenate converted by acid)", "type": "biochemical", "parameters": "gene ARO7; native enzyme in crude sonicated yeast cell extract, not purified; homodimer (known biology); 256 residues", "settings": "1 mM chorismic acid; yeast sonicate; Tris-HCl pH 8; 30 °C; ABA 10-500 µM"}, "yeast chorismate mutase [3]": {"target": "T1, yeast chorismate mutase", "type": "biochemical", "parameters": "gene ARO7; native enzyme in crude sonicated yeast cell extract, not purified; homodimer (known biology); 256 residues", "settings": "1 mM chorismic acid; yeast sonicate; Tris-HCl pH 8; 30 °C"}}, "data": [{"smiles": "N[C@@H](Cc1ccc(O)cc1)C(=O)O", "note": "[Tyrosine]", "values": [{"measurement": "optimal inhibitor concentration (not an IC50)", "setting": "yeast chorismate mutase [1]", "value": 100, "unit": "µM"}]}, {"smiles": "CC1=CC(=O)CC(C)(C)[C@@]1(O)/C=C/C(C)=C\\C(=O)O", "note": "[(+)-Abscisic acid, 5-(1-hydroxy-2,6,6-trimethyl-4-oxo-2-cyclohexene-1-yl)-3-methyl-pentadienoic acid]", "values": [{"measurement": "inhibitory concentration (range, not an IC50)", "setting": "yeast chorismate mutase [2]", "value": "200 to 300", "unit": "µM"}]}, {"smiles": "C=C(O[C@@H]1C=C(C(=O)O)C=C[C@H]1O)C(=O)O", "note": "[chorismic acid]", "values": [{"measurement": "HPLC of chorismic acid and phenylpyruvate (prephenate converted by acid)", "setting": "yeast chorismate mutase [3]", "value": "yeast chorismate mutase catalysed the conversion of externally added chorismic acid to prephenic acid"}]}]}
